# Calls of active or inactive are those of the source. The rule behind the calls is not given here.
# What was measured:
# [1] = AUC (0 to last) in CD-1 mouse at 5 mg/kg, po via gavage by LC-MS/MS analysis; assay type: ADME, organism-based; details: in vivo
# [2] = Mutagenicity in Salmonella typhimurium TA100 in presence of liver S9 fraction by Ames test; assay type: toxicity, subcellular; details: salmonella enterica subsp. enterica serovar typhimurium
# [3] = Clearance in Sprague-Dawley rat at 1 mg/kg, iv by LC-MS/MS analysis; assay type: ADME, organism-based; details: in vivo
# [4] = Intrinsic clearance in rat hepatocytes at 1 uM measured after 90 mins by LC-MS/MS analysis; assay type: ADME, cell-based, Hepatocyte; details: read-out: CLH
# [5] = Oral bioavailability in Sprague-Dawley rat at 30 mg/kg administered via gavage by LC-MS/MS analysis; assay type: ADME, organism-based; details: in vivo
# CD14-positive cell = experiment: Immunostimulatory activity in human PBMC derived M-CSF stimulated CD14-positive cells assessed as increase in IL-6 level at 0.1 to 10 uM supplemented with fresh medium containing compound on day 1, 3 and 5 followed by M-CSF/IL-4/IL-13 stimulation for 2 days with subsequent LPS induction and measured after 16 hrs; assay type: functional, cell-based; details: dose 0.1-10 µM, time 7.0 day
# HUVEC = experiment: Antiangiogenesis activity in HUVEC assessed as inhibition of vascular structure formation measured after 6 hrs by matrigel based inverted fluorescence microscopy; assay type: functional, cell-based; details: Homo sapiens, dose 0.1-10 µM
# [6] = Oral bioavailability in Beagle dog at 5 mg/kg via gavage by LC-MS/MS analysis; assay type: ADME, organism-based, Canis lupus familiaris; details: in vivo
# [7] = molecular target: Tyrosine-protein kinase Lck (Homo sapiens) (UniProt P06239); experiment: Inhibition of LCK (unknown origin) assessed as residual activity at 1 uM relative to control
# [8] = Mutagenicity in Salmonella typhimurium TA100 by Ames test; assay type: toxicity; details: salmonella enterica subsp. enterica serovar typhimurium
# [9] = Cmax in Sprague-Dawley rat at 30 mg/kg, po administered via gavage by LC-MS/MS analysis; assay type: ADME, organism-based; details: in vivo
# [10] = Half life in Sprague-Dawley rat at 1 mg/kg, iv by LC-MS/MS analysis; assay type: ADME, organism-based; details: in vivo
# [11] = Drug metabolism in monkey hepatocytes; assay type: ADME, cell-based, Macaca mulatta, Hepatocyte; details: rhesus monkey
# [12] = Mutagenicity in Salmonella typhimurium TA98 in presence of liver S9 fraction by Ames test; assay type: toxicity, subcellular; details: salmonella enterica subsp. enterica serovar typhimurium
# [13] = molecular target: Mitogen-activated protein kinase 14 (Homo sapiens, UniProt Q16539); experiment: Inhibition of p38alpha (unknown origin) measured after 40 mins in presence of [gamma-33P]ATP by microbeta liquid scintillation counting analysis; assay type: toxicity
# [14] = Half life in CD-1 mouse at 1 mg/kg, iv by LC-MS/MS analysis; assay type: ADME, organism-based; details: in vivo
# 4T1-Luc [15] = experiment: Antimetastatic activity against mouse 4T1-Luc cells implanted in BALB/c mouse assessed as reduction in metastatic rate in lung at 100 mg/kg, po administered daily for 32 days and measured on day 30 to 35 by IVIS fluorescence analysis; assay type: functional, organism-based; details: time 35.0 day
# NIH3T3 = experiment: Antiproliferative activity against mouse NIH/3T3 cells by celltitter-glo assay; assay type: functional, cell-based
# [16] = Drug metabolism in dog hepatocytes; assay type: ADME, cell-based, Canis lupus familiaris, Hepatocyte
# [17] = AUC (0 to last) in CD-1 mouse at 75 mg/kg, po via gavage by LC-MS/MS analysis; assay type: ADME, organism-based; details: in vivo
# [18] = molecular target: Voltage-gated inwardly rectifying potassium channel KCNH2 (Homo sapiens, UniProt Q12809); experiment: Inhibition of human ERG stably expressed in HEK293 cells measured at holding potential of -80 mV by manual patch clamp assay; assay type: toxicity, cell-based
# [19] = Time at which unbound plasma concentration required to show cellular IC50 for inhibition of smad phosphorylation in mouse H22 cell implanted BALB/c mouse at 15 mg/kg, po administered twice daily for 11 days; assay type: functional; details: time 11 day
# [20] = Volume of distribution at steady state in Beagle dog at 1 mg/kg, iv by LC-MS/MS analysis; assay type: ADME, organism-based, Canis lupus familiaris; details: in vivo, read-out: Vdss
# 4T1-Luc [21] = experiment: Antimetastatic activity against mouse 4T1-Luc cells implanted in BALB/c mouse assessed as reduction in metastatic rate in intestine at 100 mg/kg, po administered daily for 32 days and measured on day 30 to 35 by IVIS fluorescence analysis; assay type: functional, organism-based; details: time 35.0 day
# MDR1 = experiment: Efflux ratio of apparent permeability in dog MDCK-MDR1 cells at 2 uM measured over 150 mins by LC-MS/MS analysis; assay type: ADME, cell-based, Canis lupus familiaris
# [22] = Drug metabolism in rat liver microsomes; assay type: ADME, Microsome
# [23] = Drug metabolism in human liver microsomes; assay type: ADME, Microsome
# 4T1-Luc [24] = experiment: Antimetastatic activity against mouse 4T1-Luc cells implanted in BALB/c mouse assessed as reduction in metastatic rate in forelimb at 100 mg/kg, po administered daily for 32 days and measured on day 30 to 35 by IVIS fluorescence analysis; assay type: functional, organism-based; details: time 35.0 day
# [25] = Intrinsic clearance in mouse hepatocytes at 1 uM measured after 90 mins by LC-MS/MS analysis; assay type: ADME, cell-based, Hepatocyte; details: read-out: CLH
# [26] = Drug metabolism in mouse liver microsomes; assay type: ADME, Microsome
# [27] = Half life in Beagle dog at 5 mg/kg, po by LC-MS/MS analysis; assay type: ADME, organism-based, Canis lupus familiaris; details: in vivo
# [28] = Mutagenicity in Salmonella typhimurium TA98 by Ames test; assay type: toxicity; details: salmonella enterica subsp. enterica serovar typhimurium
# [29] = Metabolic stability in human liver microsomes assessed as parent compound remaining at 1 uM preincubated for 5 mins followed by NADPH addition by LC-MS/MS analysis; assay type: ADME, Microsome; details: read-out: Stability
# [30] = Half life in CD-1 mouse at 75 mg/kg, po via gavage by LC-MS/MS analysis; assay type: ADME, organism-based; details: in vivo
# [31] = Toxicity in mouse H22 cell implanted BALB/c mouse assessed as change in body weight at 15 to 50 mg/kg, po administered twice daily for 11 days measured daily during compound dosing; assay type: organism-based; details: in vivo, 264 h, dose 15-50 mg/kg, time 11 day
# CT26 = experiment: Synergistic antitumor activity against mouse CT26 cells implanted in BALB/c mouse assessed as tumor growth inhibition at 50 mg/kg, po administered twice daily in presence of antimouse-PD-L1 antibody; assay type: functional; details: read-out: TGI
# [32] = Time at which unbound plasma concentration required to show cellular IC50 for inhibition of smad phosphorylation in mouse H22 cell implanted BALB/c mouse at 50 mg/kg, po administered twice daily for 11 days; assay type: functional; details: time 11 day
# Cytochrome P450 2D6 = Cytochrome P450 2D6 (Homo sapiens, UniProt P10635); experiment: Inhibition of CYP2D6 in human liver microsomes using dextromethorphan as substrate preincubated for 10 mins followed by NADPH regeneration system addition and measured after 20 mins by LC-MS/MS analysis; assay type: ADME, Microsome
# [33] = Apparent permeability across apical to basolateral side in dog MDCK-MDR1 cells at 2 uM measured over 150 mins by LC-MS/MS analysis; assay type: ADME, cell-based, Canis lupus familiaris
# [34] = AUC (0 to last) in Beagle dog at 5 mg/kg, po by LC-MS/MS analysis; assay type: ADME, organism-based, Canis lupus familiaris; details: in vivo
# [35] = Protein binding in Beagle dog plasma at 0.2 to 10 uM measured after 4 hrs by equilibrium dialysis based LC-MS/MS analysis; assay type: ADME, cell-free, Canis lupus familiaris; details: dose 0.2-10 µM, read-out: PPB (converted)
# [36] = Cmax in CD-1 mouse at 5 mg/kg, po via gavage by LC-MS/MS analysis; assay type: ADME, organism-based; details: in vivo
# Cytochrome P450 3A4 = Cytochrome P450 3A4 (Homo sapiens, UniProt P08684); experiment: Inhibition of CYP3A4 in human liver microsomes using midazolam as substrate preincubated for 10 mins followed by NADPH regeneration system addition and measured after 3 mins by LC-MS/MS analysis; assay type: ADME, Microsome
# Sequence of Cytochrome P450 3A4 (P08684 whole entry): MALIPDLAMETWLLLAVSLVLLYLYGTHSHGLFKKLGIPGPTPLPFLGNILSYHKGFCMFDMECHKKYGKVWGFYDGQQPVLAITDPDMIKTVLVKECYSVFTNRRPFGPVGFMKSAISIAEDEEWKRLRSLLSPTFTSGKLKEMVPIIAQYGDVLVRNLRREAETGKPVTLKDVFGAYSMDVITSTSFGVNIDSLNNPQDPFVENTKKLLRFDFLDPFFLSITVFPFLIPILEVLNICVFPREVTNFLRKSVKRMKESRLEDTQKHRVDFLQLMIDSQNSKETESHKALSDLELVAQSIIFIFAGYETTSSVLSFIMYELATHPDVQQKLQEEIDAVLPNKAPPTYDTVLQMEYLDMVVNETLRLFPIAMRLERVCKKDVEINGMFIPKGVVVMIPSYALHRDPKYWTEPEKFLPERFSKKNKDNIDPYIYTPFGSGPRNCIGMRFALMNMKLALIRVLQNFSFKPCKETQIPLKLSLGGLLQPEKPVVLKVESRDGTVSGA
# Sequence of Cytochrome P450 2D6 (P10635 whole entry): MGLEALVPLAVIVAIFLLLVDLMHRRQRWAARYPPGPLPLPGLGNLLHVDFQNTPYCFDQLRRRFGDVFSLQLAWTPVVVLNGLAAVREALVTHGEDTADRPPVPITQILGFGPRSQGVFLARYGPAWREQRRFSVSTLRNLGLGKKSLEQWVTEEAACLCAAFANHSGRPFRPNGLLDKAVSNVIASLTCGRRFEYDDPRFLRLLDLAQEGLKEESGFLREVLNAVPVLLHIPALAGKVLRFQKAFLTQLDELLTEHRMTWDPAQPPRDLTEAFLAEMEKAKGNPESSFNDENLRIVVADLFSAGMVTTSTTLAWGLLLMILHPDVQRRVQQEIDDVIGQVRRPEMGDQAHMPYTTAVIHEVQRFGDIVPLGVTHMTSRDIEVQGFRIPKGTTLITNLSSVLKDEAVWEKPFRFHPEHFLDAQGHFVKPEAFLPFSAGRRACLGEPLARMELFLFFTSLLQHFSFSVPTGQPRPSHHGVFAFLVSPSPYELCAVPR
# Sequence of Voltage-gated inwardly rectifying potassium channel KCNH2 (Q12809 whole entry): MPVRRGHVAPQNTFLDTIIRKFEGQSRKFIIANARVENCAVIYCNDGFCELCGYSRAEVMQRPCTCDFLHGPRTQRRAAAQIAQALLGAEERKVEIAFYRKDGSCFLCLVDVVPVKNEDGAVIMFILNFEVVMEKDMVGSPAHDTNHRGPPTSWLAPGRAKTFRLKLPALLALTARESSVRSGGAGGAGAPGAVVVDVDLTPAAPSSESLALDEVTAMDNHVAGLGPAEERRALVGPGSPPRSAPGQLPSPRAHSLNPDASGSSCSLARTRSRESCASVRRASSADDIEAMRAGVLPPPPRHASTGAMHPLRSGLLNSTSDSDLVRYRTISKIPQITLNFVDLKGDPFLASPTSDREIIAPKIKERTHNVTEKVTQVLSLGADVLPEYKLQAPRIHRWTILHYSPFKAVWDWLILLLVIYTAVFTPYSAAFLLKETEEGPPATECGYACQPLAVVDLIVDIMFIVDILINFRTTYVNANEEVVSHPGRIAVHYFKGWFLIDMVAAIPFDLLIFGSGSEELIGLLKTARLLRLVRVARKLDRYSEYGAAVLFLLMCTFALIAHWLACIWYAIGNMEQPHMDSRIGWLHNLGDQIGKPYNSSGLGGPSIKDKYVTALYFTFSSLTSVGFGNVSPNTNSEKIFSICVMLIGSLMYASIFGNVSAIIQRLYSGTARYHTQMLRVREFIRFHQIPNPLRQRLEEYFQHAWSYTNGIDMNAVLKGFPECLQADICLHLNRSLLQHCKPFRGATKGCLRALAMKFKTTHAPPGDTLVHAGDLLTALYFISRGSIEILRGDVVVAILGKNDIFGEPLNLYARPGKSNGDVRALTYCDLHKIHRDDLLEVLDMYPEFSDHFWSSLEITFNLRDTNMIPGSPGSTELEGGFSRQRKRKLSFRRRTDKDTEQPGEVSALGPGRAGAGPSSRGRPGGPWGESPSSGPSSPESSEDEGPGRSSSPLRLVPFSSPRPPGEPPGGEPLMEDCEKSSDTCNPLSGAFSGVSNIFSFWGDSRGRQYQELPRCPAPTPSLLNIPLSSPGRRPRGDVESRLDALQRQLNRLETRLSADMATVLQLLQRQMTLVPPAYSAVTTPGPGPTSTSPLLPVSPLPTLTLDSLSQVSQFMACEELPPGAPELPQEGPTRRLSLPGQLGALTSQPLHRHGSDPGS
# Sequence of Mitogen-activated protein kinase 14 (Q16539 whole entry): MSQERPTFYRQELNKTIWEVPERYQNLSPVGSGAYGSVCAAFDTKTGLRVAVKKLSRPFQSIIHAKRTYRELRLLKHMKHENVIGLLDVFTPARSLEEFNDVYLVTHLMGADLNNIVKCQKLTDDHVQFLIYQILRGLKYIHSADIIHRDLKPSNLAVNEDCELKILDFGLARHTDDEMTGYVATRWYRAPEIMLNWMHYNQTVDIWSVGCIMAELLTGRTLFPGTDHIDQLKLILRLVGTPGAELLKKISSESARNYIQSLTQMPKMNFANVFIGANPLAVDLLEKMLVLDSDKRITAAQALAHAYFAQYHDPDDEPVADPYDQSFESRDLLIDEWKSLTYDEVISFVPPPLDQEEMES
# Sequence of Tyrosine-protein kinase Lck (Homo sapiens) (P06239 2-509 limits assumed): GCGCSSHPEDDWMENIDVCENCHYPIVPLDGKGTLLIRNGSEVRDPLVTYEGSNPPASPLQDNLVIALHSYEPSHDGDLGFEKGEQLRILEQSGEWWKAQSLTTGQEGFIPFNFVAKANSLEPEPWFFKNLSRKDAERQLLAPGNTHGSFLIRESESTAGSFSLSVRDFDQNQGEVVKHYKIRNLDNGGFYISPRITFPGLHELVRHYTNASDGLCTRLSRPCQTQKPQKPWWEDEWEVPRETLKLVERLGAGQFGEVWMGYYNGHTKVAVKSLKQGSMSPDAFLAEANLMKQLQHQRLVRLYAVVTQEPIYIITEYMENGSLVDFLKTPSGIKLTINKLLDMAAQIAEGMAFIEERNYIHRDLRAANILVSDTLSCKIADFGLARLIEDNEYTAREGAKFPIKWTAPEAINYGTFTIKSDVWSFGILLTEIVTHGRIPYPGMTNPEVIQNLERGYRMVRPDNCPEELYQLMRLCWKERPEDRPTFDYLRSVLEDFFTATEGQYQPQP
smiles,measurement,setting,value
Cc1cccc(-c2nn3c(c2-c2ccc4ncnn4c2/C=C/C(N)=O)CCC3)n1,AUClast,[1],285 nM.hr/ml
same,Activity,[2],Non-toxic
same,clearance,[3],33.3 mL/min/kg
same,"CLint scaled at […], 1 µM",[4],50 mL/min/kg
same,bioavailability,[5],29.9%
same,Activity,CD14-positive cell,Active
same,inhibition,HUVEC,Dose-dependent-effect
same,bioavailability,[6],65.5%
same,Activity,[7],< 50%
same,Activity,[8],Non-toxic
same,Cmax,[9],9553 nM/ml
same,half-life,[10],52.2 min
same,Drug metabolism,[11],metabolite_detected
same,Activity,[12],Non-toxic
same,IC50,[13],2650 nM
same,half-life,[14],29 min
same,Activity,4T1-Luc [15],Active
same,IC50,NIH3T3,730 nM
same,Drug metabolism,[16],metabolite_detected
same,AUClast,[17],18137 nM.hr/ml
same,IC50,[18],> 30000 nM
same,T>IC50,[19],~3.5 h
same,Vd,[20],0.961 L/kg
same,Activity,4T1-Luc [21],Active
same,"efflux ratio at 2.5 h, 2 µM",MDR1,70.7
same,Drug metabolism,[22],metabolite_detected
same,Drug metabolism,[23],metabolite_detected
same,Activity,4T1-Luc [24],Active
same,"CLint scaled at […], 1 µM",[25],298 mL/min/kg
same,Drug metabolism,[26],metabolite_detected
same,half-life,[27],170 min
same,Activity,[28],Non-toxic
same,remaining at 1 µM,[29],87.5%
same,half-life,[30],51.4 min
same,Activity,[31],Non-toxic
same,inhibition in vivo at 50 mg/kg,CT26,79.4%
same,T>IC50,[32],~5.5 h
same,IC50,Cytochrome P450 2D6,> 100000 nM
same,"Papp A→B at 2.5 h, 2 µM",[33],0.39 ×10⁻⁶ cm/s
same,AUClast,[34],18284 nM.hr/ml
same,"fraction unbound at 4 h, up to 10 µM",[35],0.476
same,Cmax,[36],355 nM/ml
same,IC50,Cytochrome P450 3A4,> 100000 nM

# Source: ChEMBL document CHEMBL6182942, “Discovery of a Selective, Novel TGF-βR1 Inhibitor GFH018 for the Treatment of Solid Tumors” (J Med Chem, 2025)
